According to the supplement of paper PMC8967900:

Assays:
Experiment in all cases: selective drug sensitivity score (sDSS, relative to normal bone marrow) (sDSS (score)); higher = more potent and effective on the cell line relative to normal bone marrow cells
Conditions in all cases: 72 h
COG-LL-394h = tested on: COG-LL-394h
KASUMI-9 = tested on: KASUMI-9
COG-LL-402h = tested on: COG-LL-402h
LC4-1 = tested on: LC4-1
P12-ICHIKAWA = tested on: P12-ICHIKAWA
COG-LL-317 = tested on: COG-LL-317
CCRF-HSB2 = tested on: CCRF-HSB2
CCRF-CEM = tested on: CCRF-CEM
P30-OHKUBO = tested on: P30-OHKUBO
JURKAT = tested on: JURKAT
COG-LL-332h = tested on: COG-LL-332h
KARPAS-45 = tested on: KARPAS-45
TMD5 = tested on: TMD5
RPMI-8402 = tested on: RPMI-8402
COG-LL-355h = tested on: COG-LL-355h
ALL-SIL = tested on: ALL-SIL
TANOUE = tested on: TANOUE
PEER = tested on: PEER
NALM-6 = tested on: NALM-6
PF-382 = tested on: PF-382
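Note: ALL cell lines in 384-well plates, five doses spanning 10,000-fold, each plate scaled between vehicle and 100 µmol/L benzalkonium chloride controls, sDSS an adapted area-under-curve metric.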

Structure (SMILES) | selective drug sensitivity score (COG-LL-394h) | selective drug sensitivity score (KASUMI-9) | selective drug sensitivity score (COG-LL-402h) | selective drug sensitivity score (LC4-1) | selective drug sensitivity score (P12-ICHIKAWA) | selective drug sensitivity score (COG-LL-317) | selective drug sensitivity score (CCRF-HSB2) | selective drug sensitivity score (CCRF-CEM) | selective drug sensitivity score (P30-OHKUBO) | selective drug sensitivity score (JURKAT) | selective drug sensitivity score (COG-LL-332h) | selective drug sensitivity score (KARPAS-45) | selective drug sensitivity score (TMD5) | selective drug sensitivity score (RPMI-8402) | selective drug sensitivity score (COG-LL-355h) | selective drug sensitivity score (ALL-SIL) | selective drug sensitivity score (TANOUE) | selective drug sensitivity score (PEER) | selective drug sensitivity score (NALM-6) | selective drug sensitivity score (PF-382)
Cc1ccc(NS(=O)(=O)c2cccc(C#N)c2)c2[nH]cc(C#N)c12 [E7820] (top concentration 50000 nM) | -1.58 | 12.7 | 17.2 | 11.8 | 15.4 | 21.9 | 18 | 9.12 | 17.3 | 21.7 | 22.1 | 20.1 | 7.32 | 17.9 | 6.22 | 20.2 | -6.28 | 17.8 | 19.2 | 10.2
C[C@@H]1CN(C(=O)c2ccc(NC(=O)c3cc(O[C@H](C)c4c(Cl)ccc(F)c4Cl)c(N)nn3)cc2)C[C@H](C)N1 [Ensartinib] (top concentration 1000 nM) | 0.86 | 0.76 | -2.34 | -1.44 | -2.54 | -2.34 | -0.64 | -0.34 | 2.06 | -2.54 | 2.76 | 2.36 | -1.84 | 0.06 | 1.86 | 1.06 | -2.84 | 1.96 | -0.44 | -2.64
c1cn2cc(-c3ccc4cn[nH]c4c3)nc(Nc3ccc(N4CCOCC4)cc3)c2n1 [Entospletinib] (top concentration 5000 nM) | -0.64 | 2.96 | 0.36 | -0.64 | -0.64 | -0.64 | -0.64 | -0.64 | 6.96 | -0.64 | -0.64 | -0.64 | -0.64 | -0.64 | 1.06 | -0.64 | -0.64 | -0.64 | 1.26 | -0.64
COc1cc([C@@H]2c3cc4c(cc3[C@@H](O[C@@H]3O[C@@H]5CO[C@@H](C)O[C@H]5[C@H](O)[C@H]3O)[C@H]3COC(=O)[C@H]23)OCO4)cc(OC)c1O [Etoposide] (top concentration 10000 nM) | 7.04 | 16.3 | 21.4 | 14.8 | 18.9 | 29.8 | 26 | 20.2 | 16.3 | 14.2 | 22.7 | 7.24 | 5.24 | 17.4 | 6.74 | 14.3 | -6.26 | 6.84 | 14.1 | 13.5
CCCCCCCCc1ccc(CCC(N)(CO)CO)cc1 [Fingolimod] (top concentration 10000 nM) | 1.68 | 0.08 | -0.92 | 0.88 | -0.92 | 1.08 | 0.48 | 0.98 | 1.38 | -1.12 | 1.38 | -0.02 | 0.48 | -1.12 | 6.88 | 1.98 | 0.78 | 1.78 | 1.58 | -0.62
O=C(NOCCO)c1ccc2cncn2c1Nc1ccc(I)cc1F [GDC-0623] (top concentration 2500 nM) | -3.4 | -0.4 | -3.2 | -2.3 | -1.7 | -0.8 | 0.8 | -1 | -2.4 | -3.2 | -1.8 | -3.1 | -0.7 | -3.3 | -0.4 | -3.4 | -3.4 | -0.1 | 3.8 | -3.3
C[C@H]1CN(C2COC2)CCN1c1ccc(Nc2cc(-c3ccnc(N4CCn5c(cc6c5CC(C)(C)C6)C4=O)c3CO)cn(C)c2=O)nc1 [GDC-0853] (top concentration 1000 nM) | 0 | 0 | 1.1 | 0 | 0 | 0 | 0 | 0 | 0 | 0 | 0 | 0 | 0 | 0 | 0 | 1.6 | 0 | 0 | 0 | 0
CCNc1nc(Nc2cc(F)c(C(=O)N3CCOCC3)cc2OC)ncc1C(F)(F)F [GNE-7915] (top concentration 1000 nM) | -0.06 | -0.06 | -0.06 | -0.06 | -0.06 | 0.34 | -0.06 | -0.06 | -0.06 | -0.06 | -0.06 | -0.06 | 5.44 | -0.06 | -0.06 | -0.06 | -0.06 | -0.06 | -0.06 | -0.06
COc1cc2ncnc(Nc3ccc(F)c(Cl)c3)c2cc1OCCCN1CCOCC1 [Gefitinib] (top concentration 10000 nM) | 0.16 | 0.16 | 0.96 | 1.16 | 0.96 | 0.36 | 6.16 | 0.56 | -0.04 | -1.44 | 2.56 | 3.36 | -2.14 | 3.96 | 0.96 | 3.66 | -1.84 | 2.76 | -0.44 | 0.26
CN1CC[C@@H](NC(=O)Nc2ccc(C#N)cc2)C[C@@H]1c1nc2ccccc2[nH]1 [Glasdegib] (top concentration 1000 nM) | 0 | 0 | 0 | 0 | 0 | 1.5 | 0 | 0 | 0 | 0 | 1 | 0 | 0.3 | 0 | 0 | 0.8 | 2.9 | 0 | 0 | 0
CN1CCN(C2CCN(C(=O)Nc3cc(Oc4ccc(NC(=O)C5(C(=O)Nc6ccc(F)cc6)CC5)c(F)c4)ccn3)CC2)CC1 [Golvatinib] (top concentration 2500 nM) | 2.26 | 0.66 | -0.14 | 2.46 | -0.14 | -0.14 | 2.96 | -0.14 | 0.56 | -0.14 | 0.86 | 0.76 | 0.76 | 0.26 | -0.14 | 4.56 | -0.14 | 2.46 | 1.06 | -0.14
CC(C)C[C@H](NC(=O)[C@@H](COC(C)(C)C)NC(=O)[C@H](Cc1ccc(O)cc1)NC(=O)[C@H](CO)NC(=O)[C@H](Cc1c[nH]c2ccccc12)NC(=O)[C@H](Cc1cnc[nH]1)NC(=O)[C@@H]1CCC(=O)N1)C(=O)N[C@@H](CCCNC(=N)N)C(=O)N1CCC[C@H]1C(=O)NNC(N)=O [Goserelin] (top concentration 10000 nM) | -0.06 | -0.06 | -0.06 | -0.06 | -0.06 | -0.06 | 0.04 | -0.06 | -0.06 | -0.06 | -0.06 | -0.06 | -0.06 | -0.06 | -0.06 | -0.06 | -0.06 | -0.06 | -0.06 | -0.06
O=S(=O)(c1cccc2c(O)nccc12)N1CCCNCC1 [Hydroxyfasudil] (top concentration 19000 nM) | -0.92 | -0.12 | -0.92 | -0.92 | -0.92 | -0.22 | 0.98 | -0.32 | -0.52 | -0.92 | -0.82 | 0.48 | 5.68 | -0.72 | -0.92 | -0.92 | -0.92 | 0.08 | -0.92 | -0.92
COc1cc(C(=O)O)ccc1NC(=O)[C@@H]1N[C@@H](CC(C)(C)C)[C@](C#N)(c2ccc(Cl)cc2F)[C@H]1c1cccc(Cl)c1F [Idasanutlin] (top concentration 10000 nM) | 4.96 | 23 | 15.4 | 19.1 | -11.5 | 28.4 | 15.5 | -9.94 | 20.8 | -7.74 | 14.5 | -8.34 | 12.6 | -12.5 | 13.7 | -12.5 | -12.5 | -9.04 | 5.66 | -12.2
CCN1CCN(c2ccc(Nc3cc(N(C)C(=O)Nc4c(Cl)c(OC)cc(OC)c4Cl)ncn3)cc2)CC1 [Infigratinib] (top concentration 1000 nM) | 0 | 0 | 0 | 0 | 0 | 0 | 0 | 0 | 0 | 0 | 0 | 0 | 0 | 0 | 0 | 0 | 0 | 0 | 0 | 0
O=C(Nc1cnn2ccc(N3CCC[C@@H]3c3cc(F)ccc3F)nc12)N1CC[C@H](O)C1 [Larotrectinib] (top concentration 1000 nM) | -0.62 | 0.98 | 2.78 | 1.28 | -0.62 | -0.62 | -0.62 | -0.62 | -0.52 | -0.62 | -0.62 | -0.62 | -0.62 | -0.62 | 0.48 | -0.62 | -0.62 | -0.62 | 0.48 | -0.62
C[C@]1(O)C[C@@H](c2nc(-c3ccc4ccc(-c5ccccc5)nc4c3)c3c(N)nccn32)C1 [Linsitinib] (top concentration 10000 nM) | -0.68 | -2.98 | -3.18 | 0.92 | -3.18 | -3.18 | -2.28 | -3.18 | -0.68 | -3.18 | -2.78 | -3.18 | 1.62 | -2.08 | 3.12 | 2.22 | -3.18 | -0.98 | -3.18 | -2.88
